Values of other authors as cited in paper PMC4842970, “Bioactivity Focus of α-Cyano-4-hydroxycinnamic acid (CHCA) Leads to Effective Multifunctional Aldose Reductase Inhibitors” (Scientific Reports, 2016).

Test system: AR
Parameters: method as in PMID 22316239
Settings: read-out: IC50 (AR inhibition); cited from earlier work

Which IC50 does the source give for `O=C(O)/C=C/c1ccc(O)cc1` [p-coumaric acid] here?
The IC50 was 140 nM.
